According to patent US9644002B2, “Allosteric modulators of EGFR and constitutively active mutants” (YALE UNIVERSITY, priority 2013, dated 2017):
Entries after “also recorded” stand apart in the source; their conditions may differ. Bridge positions count the residues as written; N and C are the ends. Square brackets hold non-standard residues; d marks the D form. Ends that are not written are not given here. R8 = C=CCCCCCC[C@@](C)(N)C(=O)O; S5 = C=CCCC[C@](C)(N)C(=O)O

How the values were obtained:
[1] = tested on: EGFR CCH-1 juxtamembrane coiled coil; experiment: Bipartite tetracysteine display (ReAsH, TIRF) of intra-dimer coiled coil formation; format: cell-based; conditions: CHO cells; for change of EGF-induced ReAsH fluorescence: EGFR CCH-1, 1 μM ligand 1 hour, 100 ng/mL EGF
Protocol: FIG. 21 is a graph depicting the results of example experiments conducted to monitor EGFR intra-dimer coiled coil formation using TIRF and bipartite tetracysteine display. CHO cells were transiently transfected with EGFR CCH-1, treated with 1 μM of the indicated ligand for 1 hour, stimulated with 100 ng/mL EGF for 30 minutes, and labeled with ReAsH (Scheck et al., 2012, ACS Chem Biol, 7: 1367). […] Error bars represent standard error of the mean. *p<0.05, **p<0.01, ***p<0.001, ****p<0.0001, one-way ANOVA with Bonferroni post-analysis accounting for multiple comparisons.
Experiments were conducted using CHO cells expressing an EGFR variant (CCH-1) with a cysteine pair within the JM-A whose location supports ReAsH binding and fluorescence upon EGF-induced coiled coil assembly 24. […] CHO cells transiently expressing the EGFR variant CCH-1 on the cell surface were exposed to native and hydrocarbon-stapled peptides, stimulated with EGF, incubated with ReAsH, and the fluorescence increase due to ReAsH quantified using total internal reflectance fluorescence microscopy (TIR-FM). […] Identical results were observed when cells were treated first with EGF and then with the indicated peptides. None of the peptides tested had any effect on the extent of ReAsH fluorescence in the absence of EGF. […] This work validates the juxtamembrane segment as a viable allosteric target for inhibitor design.

EGFR = EGFR (Homo sapiens, UniProt P00533); experiment: Immunoblot of EGFR phosphorylation in A431 cells; format: cell-based; conditions: 10 μM, Akt and Erk1/2 positions
Protocol: A431 cells were treated with 10 μM of the ligand shown for 2 hours, stimulated with 10 ng/mL EGF, then lysed, immunoblotted, and visualized. Plots illustrate the increase or decrease in the intensity of the indicated phospho-protein band between treated and untreated cells. Error bars representing standard error of the mean over at least 4 trials.
Activation of EGFR upon growth factor binding leads to a well characterized pattern of Tyr and Ser/Thr phosphorylation events that initiate downstream signaling networks (Olayioye, et al., 2000, EMBO J., 19, 3159). Molecules that block growth factor binding to the extracellular domain, or ATP binding to the intracellular kinase domain, inhibit the phosphorylation of both EGFR and downstream factors such as Erk and Akt (Yarden, et al., 2012, Nat. Rev. Cancer, 12, 553). Immunoblots were used to evaluate whether the effects of JM-A-derived ligands on the viability of EGFR-dependent cell lines correlated with their effects on EGFR phosphorylation and the activation of downstream factors. Specifically, phosphorylation was probed at EGFR tyrosines 845, 1045, 1068, 1086, and 1173, as well as for phospho-Akt (Ser473) and phospho-Erk1/2 (T202/Y204) (FIG. 19).

[2] = tested on: A431, H2030, H3255, H1975 and SK-N-MC cells; experiment: Cell viability across the cell line panel; format: cell-based; conditions: for effect on cell viability: all cell lines tested, 18 h incubation
Source text: Error bars show standard error of the mean.

wtEGFR = biological target: T1, wtEGFR (Homo sapiens, UniProt P00533); experiment: Sequestration of EGFR from CHO-K1 lysates by biotinylated peptides on streptavidin beads; format: binding; conditions: 25 μM biotinylated peptide, 1 hour
T1 construct: expressed in transfected cells; host or cells: CHO-K1 (transient transfection; lysate used)
Protocol: CHO-K1 lysates were treated with 25 μM of each biotinylated peptide shown for 1 hour, then incubated with streptavidin-coated beads overnight. Sequestered proteins were eluted, electrophoresed, and immunoblotted to detect EGFR. Band intensities were measured using ImageJ (Schneider et al., 2012, Nat. Meth., 9: 671).
Two additional experiments were performed to evaluate whether the E1^S-induced viability changes and decreases in EGFR and Erk/Akt phosphorylation resulted from a direct interaction with the EGFR JM segment. […] Each biotinylated analog (25 μM) was incubated for 1 hour with lysates from wtEGFR-expressing cells, and then incubated with Mag-Sepharose Streptavidin Beads overnight. A mock reaction lacking a biotinylated analog was run alongside. After washing, the sequestered proteins were eluted, resolved by SDS-PAGE (10%), probed with a commercial anti-EGFR antibody, visualized using a horseradish peroxidase-tagged mouse anti-rabbit secondary antibody, and quantified with chemiluminescent detection. […] Little or no EGFR was sequestered when no biotinylated peptide was added (mock), providing additional support for a direct interaction between the hydrocarbon-stapled peptide E1^S and the juxtamembrane segment of wild type EGFR.

sequestration of full length wild type EGFR from cell lysates (wtEGFR) | Substance | change of EGF-induced ReAsH fluorescence [1] | pattern of phosphorylation changes over all probed positions (EGFR) | effect on cell viability [2] | further results
 | E1ΔL^S: hydrocarbon-stapled VRKRZARRAAQXRELVE (SEQ ID NO: 19; E1ΔL), leucines replaced by alanine (VRKR[R8]ARRAAQ[S5]RELVE; staple 5-12) | significant loss in ReAsH fluorescence | little or no decrease in phosphorylation at any position | more modest effects on cell viability | change of EGF-induced ReAsH fluorescence at a lower concentration ([1]; EGFR CCH-1, lower concentration than 1 μM): effectively reduced the ReAsH signal
 | JM-WT: unmodified EGFR JM-A peptide VRKRTLRRLLQERELVE (SEQ ID NO: 1) | unchanged |  | none of the cells are sensitive; also recorded: inability to decrease the viability | 
 | TE-64562: polypeptide containing the EGFR juxtamembrane segment fused to HIV Tat (Boran et al., 2012) (YGRKKRRQRRRVRKRTLRRLLQERELVE) [reference compound] |  | paralleled | moderate decreases in viability | effect on cell viability after 72 h ([2]; 72 h incubation): potency is mitigated significantly
did not | ^BJM-WT: biotinylated analog of JM-WT (VRKRTLRRLLQERELVE; also: biotinylated) |  |  |  | 
did not | ^BT1^S: biotinylated analog of T1^S (VRKRT[S5]RRL[S5]QERELVE; staple 6-10 (inferred); also: biotinylated) |  |  |  | 

Substance | sequestration of full length wild type EGFR from cell lysates (wtEGFR) | change of EGF-induced ReAsH fluorescence [1] | pattern of phosphorylation changes over all probed positions (EGFR) | effect on cell viability [2] | further results
^BE1ΔL^S: biotinylated analog of E1ΔL^S (VRKR[R8]ARRAAQ[S5]RELVE; staple 5-12; also: biotinylated, site of biotin not given here) | sequestered; also recorded: sequester wtEGFR |  |  |  | 
